The values that follow come from paper PMC3551771, “Pharmacological modulation of histone demethylase activity by a small molecule isolated from subcritical water extracts of Sasa senanensis leaves prolongs the lifespan of Drosophila melanogaster” (BMC Complementary and Alternative Medicine, 2012).

The structures appear in SMILES notation.

What all share (test): fluorogenic JMJD demethylase assay kit, biotinylated histone H3 peptide substrate
Holding throughout (type): biochemical

One experiment deals with T1, JMJD2A (Homo sapiens, UniProt O75164).
T1 construct: gene KDM4A
T1 sequence (O75164 2-1064): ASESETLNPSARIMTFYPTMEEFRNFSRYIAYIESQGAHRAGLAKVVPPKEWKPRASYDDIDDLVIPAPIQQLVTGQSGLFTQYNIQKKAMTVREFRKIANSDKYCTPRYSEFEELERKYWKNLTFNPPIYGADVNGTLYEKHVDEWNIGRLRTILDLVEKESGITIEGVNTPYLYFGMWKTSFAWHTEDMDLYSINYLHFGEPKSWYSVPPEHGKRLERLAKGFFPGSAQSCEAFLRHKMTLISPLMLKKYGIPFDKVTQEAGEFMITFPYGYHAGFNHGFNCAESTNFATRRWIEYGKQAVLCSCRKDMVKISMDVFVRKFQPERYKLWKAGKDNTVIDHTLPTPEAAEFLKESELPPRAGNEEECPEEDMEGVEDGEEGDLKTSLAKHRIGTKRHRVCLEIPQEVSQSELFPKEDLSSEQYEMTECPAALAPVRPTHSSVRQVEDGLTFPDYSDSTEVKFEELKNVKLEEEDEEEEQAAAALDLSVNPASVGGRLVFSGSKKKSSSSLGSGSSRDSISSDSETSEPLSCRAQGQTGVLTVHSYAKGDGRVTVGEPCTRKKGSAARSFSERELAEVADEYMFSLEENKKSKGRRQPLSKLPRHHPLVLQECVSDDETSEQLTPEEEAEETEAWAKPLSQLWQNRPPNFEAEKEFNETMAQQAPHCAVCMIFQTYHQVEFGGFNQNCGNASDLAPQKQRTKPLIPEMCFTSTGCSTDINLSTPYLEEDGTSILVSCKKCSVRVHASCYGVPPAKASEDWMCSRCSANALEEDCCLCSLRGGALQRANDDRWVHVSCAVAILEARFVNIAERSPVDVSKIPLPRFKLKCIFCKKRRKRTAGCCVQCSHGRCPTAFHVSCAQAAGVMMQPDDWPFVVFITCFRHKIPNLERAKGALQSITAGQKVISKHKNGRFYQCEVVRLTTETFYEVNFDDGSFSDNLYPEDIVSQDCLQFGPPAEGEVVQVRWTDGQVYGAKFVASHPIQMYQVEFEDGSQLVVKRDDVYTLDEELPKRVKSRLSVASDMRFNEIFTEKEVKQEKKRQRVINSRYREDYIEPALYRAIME

The target in a further experiment is T2, JMJD2B (Homo sapiens, UniProt O94953).
T2 construct: gene KDM4B
T2 sequence (O94953 1-1096): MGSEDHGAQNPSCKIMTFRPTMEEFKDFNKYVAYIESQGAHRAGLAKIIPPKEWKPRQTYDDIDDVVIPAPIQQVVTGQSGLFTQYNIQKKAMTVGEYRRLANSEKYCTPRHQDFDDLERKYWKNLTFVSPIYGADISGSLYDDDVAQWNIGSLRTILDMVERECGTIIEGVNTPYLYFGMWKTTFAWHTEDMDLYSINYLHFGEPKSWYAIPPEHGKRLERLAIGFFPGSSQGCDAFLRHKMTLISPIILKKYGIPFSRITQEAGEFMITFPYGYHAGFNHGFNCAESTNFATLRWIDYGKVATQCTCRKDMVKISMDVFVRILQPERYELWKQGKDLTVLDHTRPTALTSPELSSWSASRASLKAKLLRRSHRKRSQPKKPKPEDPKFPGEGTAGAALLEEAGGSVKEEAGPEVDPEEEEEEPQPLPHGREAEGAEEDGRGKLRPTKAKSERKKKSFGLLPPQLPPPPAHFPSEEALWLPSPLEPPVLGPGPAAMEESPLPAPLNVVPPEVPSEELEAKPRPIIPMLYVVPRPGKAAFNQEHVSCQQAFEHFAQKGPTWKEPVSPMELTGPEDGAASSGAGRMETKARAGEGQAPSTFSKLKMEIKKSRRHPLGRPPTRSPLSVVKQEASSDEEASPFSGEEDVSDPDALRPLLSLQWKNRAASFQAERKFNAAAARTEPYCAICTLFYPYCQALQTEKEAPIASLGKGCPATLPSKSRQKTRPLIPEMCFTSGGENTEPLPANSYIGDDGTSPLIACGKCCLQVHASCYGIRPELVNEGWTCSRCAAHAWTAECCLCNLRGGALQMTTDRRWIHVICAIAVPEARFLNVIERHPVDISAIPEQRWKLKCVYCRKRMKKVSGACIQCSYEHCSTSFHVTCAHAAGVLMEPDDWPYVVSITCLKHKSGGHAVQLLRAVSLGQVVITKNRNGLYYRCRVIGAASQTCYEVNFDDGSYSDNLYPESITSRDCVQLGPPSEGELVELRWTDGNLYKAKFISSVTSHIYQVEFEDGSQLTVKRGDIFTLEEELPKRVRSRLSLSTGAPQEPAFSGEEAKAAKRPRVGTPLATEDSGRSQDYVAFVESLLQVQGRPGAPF
The source says: IC50 values are mean ± SEM

The target of a further experiment is T3, JMJD2C (Homo sapiens, UniProt Q9H3R0).
T3 construct: gene KDM4C
T3 sequence (Q9H3R0 1-1056): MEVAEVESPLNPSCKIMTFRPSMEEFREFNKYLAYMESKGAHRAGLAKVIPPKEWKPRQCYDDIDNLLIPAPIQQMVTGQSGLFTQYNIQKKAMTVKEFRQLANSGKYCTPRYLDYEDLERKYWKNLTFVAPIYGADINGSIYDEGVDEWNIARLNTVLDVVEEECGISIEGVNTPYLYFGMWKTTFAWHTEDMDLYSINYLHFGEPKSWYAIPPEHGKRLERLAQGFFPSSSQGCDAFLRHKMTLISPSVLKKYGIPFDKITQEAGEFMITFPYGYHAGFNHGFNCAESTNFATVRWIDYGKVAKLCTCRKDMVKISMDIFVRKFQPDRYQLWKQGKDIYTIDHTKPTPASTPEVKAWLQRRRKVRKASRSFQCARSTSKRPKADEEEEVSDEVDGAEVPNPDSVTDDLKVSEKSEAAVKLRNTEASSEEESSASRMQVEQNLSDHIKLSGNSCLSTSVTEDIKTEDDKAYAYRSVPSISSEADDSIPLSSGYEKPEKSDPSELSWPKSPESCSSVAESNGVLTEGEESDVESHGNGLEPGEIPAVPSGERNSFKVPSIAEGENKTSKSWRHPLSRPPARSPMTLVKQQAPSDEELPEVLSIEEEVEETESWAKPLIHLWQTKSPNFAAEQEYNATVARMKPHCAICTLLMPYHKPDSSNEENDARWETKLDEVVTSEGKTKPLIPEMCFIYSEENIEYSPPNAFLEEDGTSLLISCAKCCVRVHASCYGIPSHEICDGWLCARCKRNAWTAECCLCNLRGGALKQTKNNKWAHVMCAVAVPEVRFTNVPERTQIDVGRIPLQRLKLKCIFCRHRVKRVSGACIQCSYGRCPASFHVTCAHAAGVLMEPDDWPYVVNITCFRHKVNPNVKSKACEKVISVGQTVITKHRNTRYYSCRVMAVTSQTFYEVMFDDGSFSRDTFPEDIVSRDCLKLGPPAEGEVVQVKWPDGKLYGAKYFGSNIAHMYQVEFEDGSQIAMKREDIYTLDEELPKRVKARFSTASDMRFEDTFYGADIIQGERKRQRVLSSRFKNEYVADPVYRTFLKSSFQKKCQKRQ

As to `O=Cc1ccc(O)c(O)c1` [PA, 3,4-dihydroxybenzaldehyde], the IC50 (in general, the concentration that gives 50% inhibition) on JMJD2A came to 11.6 ± 1.5 µM; against JMJD2B, 38.6 ± 10 µM; against JMJD2C, 33.7 ± 7.8 µM.
